Measurements as given in patent publication US8003659B2, “Macrocyclic serine protease inhibitors” (Indenix Pharmaceuticals, Inc., priority 2008, dated 2011).

Experiments:
[1] = system: Huh-7 cells containing HCV Con1 subgenomic replicon (GS4.1 cells); test: HCV Replicon Assay (NS4A ELISA); format: cell-based; settings: Hepatitis C virus, Huh-7, 72 hr, NS4A protein by ELISA
Experimental: General procedure: Huh-7 cells containing HCV Con1 subgenomic replicon (GS4.1 cells) were grown in Dulbecco's Modified Eagle Medium (DMEM) supplemented with 10% fetal bovine serum (FBS), 2 mM L-glutamine, 110 mg/L sodium pyruvate, 1× non-essential amino acids, 100 U/mL penicillin-streptomycin, and 0.5 mg/mL G418 (Invitrogen). For dose-response testing, the cells were seeded in 96-well plates at 7.5×10^3 cells/well in a volume of 50 μL, and incubated at 37° C./5% CO2. Three hours after plating, 50 μL of ten 2-fold serial dilutions of compounds (highest concentration, 75 μM) were added, and cell cultures were incubated at 37° C./5% CO2 in the presence of 0.5% DMSO. Alternatively, compounds were tested at a single concentration of 15 μM. In all cases, Huh-7 cells lacking the HCV replicon served as negative control. The cells were incubated in the presence of compounds for 72 hr after which they were monitored for expression of the NS4A protein by enzyme-linked immunosorbent assay (ELISA). For this, the plates were then fixed for 1 min with acetone/methanol (1:1, v/v), washed twice with phosphate-buffered saline (PBS), 0.1% Tween 20, blocked for 1 hr at room temperature with TNE buffer containing 10% FBS and then incubated for 2 hr at 37° C. with the anti-NS4A mouse monoclonal antibody A-236 (ViroGen) diluted in the same buffer. After washing three times with PBS, 0.1% Tween 20, the cells were incubated 1 hr at 37° C. with anti-mouse immunoglobulin G-peroxidase conjugate in TNE, 10% FBS. After washing as described above, the reaction was developed with O-phenylenediamine (Zymed). The reaction was stopped after 30 min with 2 NH2SO4, and absorbance was read at 492 nm using Sunrise Tecan spectrophotometer. EC50 values were determined from the % inhibition versus concentration data using a sigmoidal non-linear regression analysis based on four parameters with Tecan Magellan software. When screening at a single concentration, the results were expressed as % inhibition at 15 μM.

[2] = Cytotoxicity evaluation (Cell Titer 96 AQueous One Solution Cell Proliferation Assay); format: cell-based; settings: human; GS4.1 cells, cellular viability
Experimental: For cytotoxicity evaluation, GS4.1 cells were treated with compounds as described above and cellular viability was monitored using the Cell Titer 96 AQueous One Solution Cell Proliferation Assay (Promega). CC50 values were determined from the % cytotoxicity versus concentration data with Tecan Magellan software as described above.

[3] = target: T1, HCV NS3-NS4A protease (Hepatitis C virus genotype 1b, UniProt P26663); test: HCV Protease Assay (SensoLyte 620 HCV Protease Assay kit); format: biochemical; settings: 1.2 nM HCV NS3-NS4A protease, 60 min at room temperature, 5% DMSO
T1 construct: made in house
Experimental: General procedure: Measurement of the inhibitory effect of compounds on HCV protease activity was performed with the SensoLyte™ 620 HCV Protease Assay kit from AnaSpec, Inc. (San Jose, Calif.) under conditions described by the supplier using 1.2 nM HCV NS3-NS4A protease, which was obtained according to Taremi et al. (Protein Science, 1998, 7, 2143-2149). The compounds were tested at a variety of concentrations in assay buffer containing a final DMSO concentration of 5%. Reactions were allowed to proceed for 60 min at room temperature and fluorescence measurements were recorded with a Tecan Infinity Spectrofluorimeter. The IC50 values were determined from the percent inhibition versus concentration data using a sigmoidal non-linear regression analysis based on four parameters with Tecan Magellan software.

T1 sequence (P26663 1027-1208): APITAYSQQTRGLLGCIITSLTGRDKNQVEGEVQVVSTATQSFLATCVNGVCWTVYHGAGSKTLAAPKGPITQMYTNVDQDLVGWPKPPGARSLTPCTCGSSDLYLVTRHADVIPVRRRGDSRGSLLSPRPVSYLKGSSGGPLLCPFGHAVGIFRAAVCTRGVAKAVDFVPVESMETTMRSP

SMILES	EC50 [1]	CC50 [2]	IC50 [3]
COc1ccc2c(O[C@H]3C[C@H]4C(=O)N(C)CCCC/C=C\[C@@H]5C[C@@]5(C(=O)NS(=O)(=O)C5CC5)NC(=O)N4C3)cc(-c3nc(C4CC4)cs3)nc2c1Cl [AC1, (Z)-(4R,6S,15S,17S)-[17-[8-chloro-7-methoxy-2-(4-cyclopropylthiazol-2-yl)quinolin-4-yloxy]-13-N-methyl-2,14-dioxo-1,3,13-triazatricyclo-[13.3.0.0]octadec-7-en-4-yl]carbonyl-(cyclopropyl)sulfonamide]	< 1000 nM	10 to 75 µM	< 1000 nM
COc1ccc2c(O[C@H]3C[C@H]4C(=O)N(C)CCCC/C=C\[C@@H]5C[C@@]5(C(=O)NS(=O)(=O)C5(C)CC5)NC(=O)N4C3)nc(-c3nc(C(C)C)cs3)nc2c1Cl [Compound 110d, (Z)-(4R,6S,15S,17S)-[17-[8-chloro-7-methoxy-2-(4-isopropylthiazol-2-yl)quinazolin-4-yloxy]-13-N-methyl-2,14-dioxo-1,3,13-triazatricyclo[13.3.0.0]octadec-7-ene-4-yl]carbonyl(1-methylcyclopropyl)sulfonamide]	< 1000 nM	> 75 µM	< 1000 nM
C#Cc1csc(-c2cc(O[C@H]3C[C@H]4C(=O)N(C)CCCC/C=C\[C@@H]5C[C@@]5(C(=O)NS(=O)(=O)C5(C)CC5)NC(=O)N4C3)c3ccc(OC)c(C)c3n2)n1 [Compound G4, (Z)-(4R,6S,15S,17S)-[17-[7-methoxy-8-methyl-2-(4-ethynylthiazol-2-yl)quinolin-4-yloxy]-13-N-methyl-2,14-dioxo-1,3,13-triazatricyclo-[13.3.0.0]octadec-7-en-4-yl]carbonyl (1-methylcyclopropyl)sulfonamide]	< 1000 nM	10 to 75 µM	< 1000 nM
COc1cc(C)c2nc(-c3nc(C(C)C)cs3)cc(O[C@H]3C[C@H]4C(=O)N(C)CCCC/C=C\[C@@H]5C[C@@]5(C(=O)NS(=O)(=O)C5CC5)NC(=O)N4C3)c2c1 [Compound 62f, (Z)-(4R,6S,15S,17S)-[17-[6-methoxy-8-methyl-2-(4-isopropylthiazol-2-yl)quinolin-4-yloxy]-13-N-methyl-2,14-dioxo-1,3,13-triazatricyclo[13.3.0.0]octadec-7-en-4-yl]carbonyl(cyclopropyl)sulfonamide]	< 1000 nM	> 75 µM	< 1000 nM
COc1ccc2c(O[C@H]3C[C@H]4C(=O)N(C)CCCC/C=C\[C@@H]5C[C@@]5(C(=O)NS(=O)(=O)C5(C)CC5)NC(=O)N4C3)cc(-c3nc(C(C)C)cs3)nc2c1F [Compound 56c, (Z)-(4R,6S,15S,17S)-[17-[8-fluoro-7-methoxy-2-(4-isopropylthiazol-2-yl)quinolin-4-yloxy]-13-N-methyl-2,14-dioxo-1,3,13-triazatricyclo[13.3.0.0]octadec-7-en-4-yl]carbonyl(1-methyl-cyclopropyl)sulfonamide]	< 1000 nM	> 75 µM	< 1000 nM
COc1ccc2c(O[C@H]3C[C@H]4C(=O)N(C)CCCC/C=C\[C@@H]5C[C@@]5(C(=O)NS(=O)(=O)C5CC5)NC(=O)N4C3)cc(-c3nc(C(C)C)cs3)nc2c1C [Compound 62b, (Z)-(4R,6S,15S,17S)-[17-[7-methoxy-8-methyl-2-(4-isopropylthiazol-2-yl)quinolin-4-yloxy]-13-N-methyl-2,14-dioxo-1,3,13-triazatricyclo[13.3.0.0]octadec-7-en-4-yl]carbonyl(cyclopropyl)sulfonamide]	< 1000 nM	> 75 µM	< 1000 nM
COc1ccc2c(O[C@H]3C[C@H]4C(=O)N(C)CCCC/C=C\[C@@H]5C[C@@]5(C(=O)NS(=O)(=O)C5(C)CC5)NC(=O)N4C3)cc(-c3csc(C(C)C)n3)nc2c1Cl [Compound 101d, (Z)-(4R,6S,15S,17S)-[17-[8-chloro-7-methoxy-2-(2-isopropythiazol-4-yl)quinolin-4-yloxy]-13-N-methyl-2,14-dioxo-1,3,13-triazatricyclo[13.3.0.0]octadec-7-ene-4-yl]carbonyl(1-methylcyclopropyl)sulfonamide]	< 1000 nM	> 75 µM	< 1000 nM
COc1ccc2c(O[C@H]3C[C@H]4C(=O)N(C)CCCC/C=C\[C@@H]5C[C@@]5(C(=O)NS(=O)(=O)C5(C)CC5)NC(=O)N4C3)cc(-c3nc(C(C)C)cs3)nc2c1Br [Compound 56h, (Z)-(4R,6S,15S,17S)-[17-[8-bromo-7-methoxy-2-(4-isopropylthiazol-2-yl)quinolin-4-yloxy]-13-N-methyl-2,14-dioxo-1,3,13-triazatricyclo[13.3.0.0]octadec-7-en-4-yl]carbonyl(1-methyl-cyclopropyl)sulfonamide]	< 1000 nM	> 75 µM	< 1000 nM
COc1ccc2c(O[C@H]3C[C@H]4C(=O)N(C)CCCC/C=C\[C@@H]5C[C@@]5(C(=O)NS(=O)(=O)C5(C)CC5)NC(=O)N4C3)cc(-c3nc(C(C)C)cs3)nc2c1 [Compound 56a, (Z)-(4R,6S,15S,17S)-[17-[7-methoxy-2-(4-isopropylthiazol-2-yl)quinolin-4-yloxy]-13-N-methyl-2,14-dioxo-1,3,13-triazatricyclo-[13.3.0.0]octadec-7-en-4-yl]carbonyl(1-methyl-cyclopropyl)sulfonamide]	< 1000 nM	> 75 µM	< 1000 nM
COc1ccc2c(O[C@H]3C[C@H]4C(=O)N(C)CCCC/C=C\[C@@H]5C[C@@]5(C(=O)NS(=O)(=O)C5CC5)NC(=O)N4C3)cc(-n3ccc(C(C)C)n3)nc2c1C [Compound 91f, (Z)-(4R,6S,15S,17S)-[17-[8-methyl-7-methoxy-2-(3-isopropyl-1H-pyrazol-1-yl)quinolin-4-yloxy]-13-N-methyl-2,14-dioxo-1,3,13-triazatricyclo[13.3.0.0]octadec-7-ene-4-yl]carbonyl(cyclopropyl)sulfonamide]	< 1000 nM	> 75 µM	< 1000 nM
COc1ccc2c(O[C@H]3C[C@H]4C(=O)N(C)CCCC/C=C\[C@@H]5C[C@@]5(C(=O)NS(=O)(=O)C5CC5)NC(=O)N4C3)cc(-c3csc(C(F)(F)F)n3)nc2c1C [Compound O3, (Z)-(4R,6S,15S,17S)-[17-[7-methoxy-8-methyl-2-(2-trifluoromethylthiazol-4-yl)quinolin-4-yloxy]-13-N-methyl-2,14-dioxo-1,3,13-triazatricyclo-[13.3.0.0]octadec-7-en-4-yl]carbonyl-(cyclopropyl)sulfonamide]	< 1000 nM	10 to 75 µM	< 1000 nM
COc1ccc2c(O[C@H]3C[C@H]4C(=O)N(C)CCCC/C=C\[C@@H]5C[C@@]5(C(=O)NS(=O)(=O)C5CC5)NC(=O)N4C3)cc(-c3nc(C(F)(F)F)cs3)nc2c1Cl [Compound 69d, (Z)-(4R,6S,15S,17S)-[17-[8-chloro-7-methoxy-2-(4-trifluoromethythiazol-2-yl)quinolin-4-yloxy]-13-N-methyl-2,14-dioxo-1,3,13-triazatricyclo[13.3.0.0]octadec-7-en-4-yl]carbonyl(cyclopropyl)sulfonamide]	< 1000 nM	10 to 75 µM	< 1000 nM
